Each molecule was assayed on Lasiodiplodia theobromae (assay: Antifungal activity against Lasiodiplodia theobromae OCS71 assessed as inhibition of mycelial growth at 100 ug/ml after 4 days by fungicide disk assay). Conditions: 96 h.
Assay type: functional

SMILES	inhibition at 100 µg/mL [%]
COc1cc(O)c(C)c2c1CO[C@@H](C)C2	< 10
COc1cc(O)c(C)c2c1[C@@H](OC)O[C@@H](C)C2	76
CCOC1O[C@@H](C)Cc2c(C)c(O)cc(OC)c21 (some centres undefined)	74
COC1=CC(=O)C(C)=C2C[C@H](C)OC=C12	69

From ChEMBL document CHEMBL1151242, “A new antifungal metabolite from Penicillium expansum” (2004)
